{"source": "patent US7452865B2", "about": "“Antagonistic analogs of GH RH (2003)” (The Administrare's of the Tulane Educational Fund, priority 2004, dated 2008)", "key": {"[1]": {"test_system": "hGH-RH(1-29)NH2 induced GH release", "assay": "Inhibition of GH release in superfused rat pituitary system", "assay_type": "cell-based", "settings": "for GH response (% of control) 0 min / GH response (% of control) 30 min / GH response (% of control) 60 min / GH response (% of control) 90 min / GH response (% of control) 120 min: antagonist 30 nM; for GH response (% of control) 0 min: 1 nM hGH-RH(1-29)NH2 at 0 min; for GH response (% of control) 30 min: 1 nM hGH-RH(1-29)NH2 at 30 min; for GH response (% of control) 60 min: 1 nM hGH-RH(1-29)NH2 at 60 min; for GH response (% of control) 90 min: 1 nM hGH-RH(1-29)NH2 at 90 min; for GH response (% of control) 120 min: 1 nM hGH-RH(1-29)NH2 at 120 min; for endocrine antagonistic potency: inhibition of the GH release stimulated by hGH-RH(1-29)NH2 (in words): general statement, in vitro and in vivo", "summary_of_the_method": "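Dispersed rat pituitary cells in superfusion were preincubated 9 min with analog at various concentrations, then stimulated with 1 nM hGH-RH(1-29)NH2 for 3 min, repeated at 30, 60, 90, 120 min to gauge duration. GH measured by double-antibody RIA; net integrated responses expressed as percent of the initial 1 nM GH-RH response.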"}, "[2]": {"test_system": "GH-RH receptor isoforms on membrane fractions of human PC-3 prostate tumors", "assay_type": "binding", "settings": "for binding affinities to the tumoral receptors for GH-RH (in words): general statement", "excerpt": "Ligand competition assays with ^125I-labeled GH-RH antagonist JV-1-42 were used to determine the binding affinities of GH-RH analogs to the GH-RH receptor isoforms on membrane fractions of human PC-3 prostate tumors. The methods used have been described in detail (Halmos G, Schally A V, Varga J L, Plonowski A, Rekasi Z, Czompoly T, Proc Natl Acad Sci USA 97: 10555-10560, 2000; Halmos G, Schally A V, Czompoly T, Krupa M, Varga J L, Rekasi Z, J Clin Endocrinol Metab 87: 4707-4714, 2002), hereby incorporated by reference. Briefly, radioiodinated derivatives of JV-142 are prepared by the chloramine-T method. PC-3 tumors, grown as xenografts in nude mice, are used to prepare crude membranes. PC-3 membrane homogenates are incubated with [^125I]JV-142 and increasing concentrations (10^−12 to 10^−6 M) of nonradioactive antagonist peptides as competitors. The pellet is separated by centrifugation and counted for radioactivity in a gamma-counter. The final binding affinities are estimated by K1 (dissociation constant of the inhibitor-receptor complex) and are determined by the Ligand PC and McPherson computer programs of Munson and Rodbard (P. J. Munson and D. Rodbard, Anal. Biochem. […]: 220-239, 1980). Relative affinities (R.A.) compared to reference peptides such as JV-1-36 or JV-1-38, are calculated as the ratio of K1 of the reference peptide to the K, of the tested GH-RH antagonist."}}, "note": "Square brackets hold non-standard residues; d marks the D form. Peptide text beside a SMILES is read from it. * marks the point of attachment. Phe(4-Cl) = N[C@@H](Cc1ccc(Cl)cc1)C(=O)O; C14 diacid = O=C(O)CCCCCCCCCCCCC(=O)*; HOOC(CH2)8CO = O=C(O)CCCCCCCCC(=O)*; HOOC(CH2)6CO = O=C(O)CCCCCCC(=O)*; hArg = N=C(N)NCCCC[C@H](N)C(=O)O; Nle = CCCC[C@H](N)C(=O)O; Octanoyl = CCCCCCCC(=O)*; Abu = CC[C@H](N)C(=O)O", "data": [{"smiles": "CCCC[C@H](NC(=O)[C@@H](NC(=O)[C@H](CC(=O)O)NC(=O)[C@H](CCC(N)=O)NC(=O)[C@H](CC(C)C)NC(=O)[C@H](CC(C)C)NC(=O)[C@H](CCCCN)NC(=O)[C@H](CCCNC(=N)N)NC(=O)[C@H](C)NC(=O)[C@H](CO)NC(=O)[C@H](CC(C)C)NC(=O)[C@H](CCC(N)=O)NC(=O)[C@H](CC)NC(=O)[C@H](CC(C)C)NC(=O)[C@@H](NC(=O)[C@H](CCCCN)NC(=O)[C@H](CCCNC(=N)N)NC(=O)[C@H](Cc1ccc(O)cc1)NC(=O)[C@H](CCCNC(=N)N)NC(=O)[C@H](CC(N)=O)NC(=O)[C@@H](NC(=O)[C@H](Cc1ccc(Cl)cc1)NC(=O)[C@@H](NC(=O)[C@H](C)NC(=O)[C@H](CC(=O)O)NC(=O)[C@@H](CCCNC(=N)N)NC(=O)[C@H](Cc1ccc(O)cc1)NC(=O)CCCCCCCCC(=O)O)[C@@H](C)CC)[C@@H](C)O)C(C)C)[C@@H](C)CC)C(=O)N[C@H](CCCNC(=N)N)C(=O)N[C@@H](CCCCNC(=N)N)C(N)=O", "note": "[Peptide 7, [HOOC(CH2)8CO-Tyr^1, D-Arg^2, Phe(pCl)^6, Arg^9, Abu^15, Nle^27, D-Arg^28, Har^29]hGH-RH(1-29)NH2] ({HOOC(CH2)8CO}-Y[dR]DAI[Phe(4-Cl)]TNRYRKVL[Abu]QLSARKLLQDI[Nle][dR][hArg]-NH2)", "values": [{"measurement": "GH response (% of control) 0 min", "setting": "[1]", "result": "23 % of control"}, {"measurement": "GH response (% of control) 30 min", "setting": "[1]", "result": "13 % of control"}, {"measurement": "GH response (% of control) 60 min", "setting": "[1]", "result": "11 % of control"}, {"measurement": "GH response (% of control) 90 min", "setting": "[1]", "result": "14 % of control"}, {"measurement": "GH response (% of control) 120 min", "setting": "[1]", "result": "14 % of control"}, {"measurement": "endocrine antagonistic potency: inhibition of the GH release stimulated by hGH-RH(1-29)NH2 (in words)", "setting": "[1]", "result": "high endocrine antagonistic potencies"}, {"measurement": "Relative Affinities (R.A.) to membrane receptors on PC-3 human prostate cancers", "setting": "[2]", "result": 12}, {"measurement": "binding affinities to the tumoral receptors for GH-RH (in words)", "setting": "[2]", "result": "extremely high binding affinities"}]}, {"smiles": "CCCC[C@H](NC(=O)[C@@H](NC(=O)[C@H](CC(=O)O)NC(=O)[C@H](CCC(N)=O)NC(=O)[C@H](CC(C)C)NC(=O)[C@H](CC(C)C)NC(=O)[C@H](CCCCN)NC(=O)[C@H](CCCNC(=N)N)NC(=O)[C@H](C)NC(=O)[C@H](CO)NC(=O)[C@H](CC(C)C)NC(=O)[C@H](CCC(N)=O)NC(=O)[C@H](CC)NC(=O)[C@H](CC(C)C)NC(=O)[C@@H](NC(=O)[C@H](CCCCN)NC(=O)[C@H](CCCNC(=N)N)NC(=O)[C@H](Cc1ccc(O)cc1)NC(=O)[C@H](CCCNC(=N)N)NC(=O)[C@H](CC(N)=O)NC(=O)[C@@H](NC(=O)[C@H](Cc1ccc(Cl)cc1)NC(=O)[C@@H](NC(=O)[C@H](C)NC(=O)[C@H](CC(=O)O)NC(=O)[C@@H](CCCNC(=N)N)NC(=O)[C@H](Cc1ccc(O)cc1)NC(=O)CCCCCCCCCCCCC(=O)O)[C@@H](C)CC)[C@@H](C)O)C(C)C)[C@@H](C)CC)C(=O)N[C@H](CCCNC(=N)N)C(=O)N[C@@H](CCCCNC(=N)N)C(N)=O", "note": "[Peptide 11, [HOOC(CH2)12CO-Tyr^1, D-Arg^2, Phe(pCl)^6, Arg^9, Abu^15, Nle^27, D-Arg^28, Har^29]hGH-RH(1-29)NH2] ({C14 diacid}-Y[dR]DAI[Phe(4-Cl)]TNRYRKVL[Abu]QLSARKLLQDI[Nle][dR][hArg]-NH2)", "values": [{"measurement": "GH response (% of control) 0 min", "setting": "[1]", "result": "14 % of control"}, {"measurement": "GH response (% of control) 30 min", "setting": "[1]", "result": "24 % of control"}, {"measurement": "GH response (% of control) 60 min", "setting": "[1]", "result": "29 % of control"}, {"measurement": "GH response (% of control) 90 min", "setting": "[1]", "result": "34 % of control"}, {"measurement": "GH response (% of control) 120 min", "setting": "[1]", "result": "32 % of control"}, {"measurement": "Relative Affinities (R.A.) to membrane receptors on PC-3 human prostate cancers", "setting": "[2]", "result": 1.3}, {"measurement": "binding affinities to the tumoral receptors for GH-RH (in words)", "setting": "[2]", "result": "extremely high binding affinities"}]}, {"smiles": "CCCCCCCC(=O)N[C@@H](Cc1ccc(O)cc1)C(=O)N[C@H](CCCNC(=N)N)C(=O)N[C@@H](CC(=O)O)C(=O)N[C@@H](C)C(=O)N[C@H](C(=O)N[C@@H](Cc1ccc(Cl)cc1)C(=O)N[C@H](C(=O)N[C@@H](CC(N)=O)C(=O)N[C@@H](CCCNC(=N)N)C(=O)N[C@@H](Cc1ccc(O)cc1)C(=O)N[C@@H](CCCNC(=N)N)C(=O)N[C@@H](CCCCN)C(=O)N[C@H](C(=O)N[C@@H](CC(C)C)C(=O)N[C@@H](CC)C(=O)N[C@@H](CCC(N)=O)C(=O)N[C@@H](CC(C)C)C(=O)N[C@@H](CO)C(=O)N[C@@H](C)C(=O)N[C@@H](CCCNC(=N)N)C(=O)N[C@@H](CCCCN)C(=O)N[C@@H](CC(C)C)C(=O)N[C@@H](CC(C)C)C(=O)N[C@@H](CCC(N)=O)C(=O)N[C@@H](CC(=O)O)C(=O)N[C@H](C(=O)N[C@@H](CCCC)C(=O)N[C@H](CCCNC(=N)N)C(=O)N[C@@H](CCCCNC(=N)N)C(N)=O)[C@@H](C)CC)C(C)C)[C@@H](C)O)[C@@H](C)CC", "note": "[Peptide 4, [CH3(CH2)6CO-Tyr^1, D-Arg^2, Phe(pCl)^6, Arg^9, Abu^15, Nle^27, D-Arg^28, Har^29]hGH-RH(1-29)NH2] (Octanoyl-Y[dR]DAI[Phe(4-Cl)]TNRYRKVL[Abu]QLSARKLLQDI[Nle][dR][hArg]-NH2)", "values": [{"measurement": "GH response (% of control) 0 min", "setting": "[1]", "result": "5 % of control"}, {"measurement": "GH response (% of control) 30 min", "setting": "[1]", "result": "0 % of control"}, {"measurement": "GH response (% of control) 60 min", "setting": "[1]", "result": "12 % of control"}, {"measurement": "GH response (% of control) 90 min", "setting": "[1]", "result": "8 % of control"}, {"measurement": "GH response (% of control) 120 min", "setting": "[1]", "result": "18 % of control"}, {"measurement": "endocrine antagonistic potency: inhibition of the GH release stimulated by hGH-RH(1-29)NH2 (in words)", "setting": "[1]", "result": "high endocrine antagonistic potencies"}, {"measurement": "Relative Affinities (R.A.) to membrane receptors on PC-3 human prostate cancers", "setting": "[2]", "result": 53}, {"measurement": "binding affinities to the tumoral receptors for GH-RH (in words)", "setting": "[2]", "result": "extremely high binding affinities"}]}, {"smiles": "CCCC[C@H](NC(=O)[C@@H](NC(=O)[C@H](CC(=O)O)NC(=O)[C@H](CCC(N)=O)NC(=O)[C@H](CC(C)C)NC(=O)[C@H](CC(C)C)NC(=O)[C@H](CCCCN)NC(=O)[C@H](CCCNC(=N)N)NC(=O)[C@H](C)NC(=O)[C@H](CO)NC(=O)[C@H](CC(C)C)NC(=O)[C@H](CCC(N)=O)NC(=O)[C@H](CC)NC(=O)[C@H](CC(C)C)NC(=O)[C@@H](NC(=O)[C@H](CCCCN)NC(=O)[C@H](CCCNC(=N)N)NC(=O)[C@H](Cc1ccc(O)cc1)NC(=O)[C@H](CCCNC(=N)N)NC(=O)[C@H](CC(N)=O)NC(=O)[C@@H](NC(=O)[C@H](Cc1ccc(Cl)cc1)NC(=O)[C@@H](NC(=O)[C@H](C)NC(=O)[C@H](CC(=O)O)NC(=O)[C@@H](CCCNC(=N)N)NC(=O)[C@H](Cc1ccc(O)cc1)NC(=O)CCCCCCC(=O)O)[C@@H](C)CC)[C@@H](C)O)C(C)C)[C@@H](C)CC)C(=O)N[C@H](CCCNC(=N)N)C(=O)N[C@@H](CCCCNC(=N)N)C(N)=O", "note": "[Peptide 5, [HOOC(CH2)6CO-Tyr^1, D-Arg^2, Phe(pCl)^6, Arg^9, Abu^15, Nle^27, D-Arg^28, Har^29]hGH-RH(1-29)NH2] ({HOOC(CH2)6CO}-Y[dR]DAI[Phe(4-Cl)]TNRYRKVL[Abu]QLSARKLLQDI[Nle][dR][hArg]-NH2)", "values": [{"measurement": "GH response (% of control) 0 min", "setting": "[1]", "result": "22 % of control"}, {"measurement": "GH response (% of control) 30 min", "setting": "[1]", "result": "20 % of control"}, {"measurement": "GH response (% of control) 60 min", "setting": "[1]", "result": "23 % of control"}, {"measurement": "GH response (% of control) 90 min", "setting": "[1]", "result": "27 % of control"}, {"measurement": "GH response (% of control) 120 min", "setting": "[1]", "result": "27 % of control"}, {"measurement": "Relative Affinities (R.A.) to membrane receptors on PC-3 human prostate cancers", "setting": "[2]", "result": 4}, {"measurement": "binding affinities to the tumoral receptors for GH-RH (in words)", "setting": "[2]", "result": "extremely high binding affinities"}]}]}
